US7396856B2, “Benzopyran analogs and their use for the treatment of glaucoma” (Alcon, Inc., priority 2002, dated 2008)
Counter-ions that a name gives are not always drawn. Like-named read-outs stand apart in the source and are kept apart here.

Key:
[1] = target: T1, 5-HT2 receptor (Rattus norvegicus, UniProt P14842); experiment: 5-HT2 functional assay: [Ca2+]i mobilization (FLIPR) in A7r5 cells; assay type: cell-based; conditions: for Emax / Efficacy (Emax, %): percentage of maximum 5-HT-induced response; for Emax: read-out: Efficacy (Emax, %); for EC50: A7r5 rat vascular smooth muscle cells, FLIPR
T1 construct: endogenous in cells; host or cells: A7r5 rat vascular smooth muscle cells
T1 sequence (P14842 whole entry): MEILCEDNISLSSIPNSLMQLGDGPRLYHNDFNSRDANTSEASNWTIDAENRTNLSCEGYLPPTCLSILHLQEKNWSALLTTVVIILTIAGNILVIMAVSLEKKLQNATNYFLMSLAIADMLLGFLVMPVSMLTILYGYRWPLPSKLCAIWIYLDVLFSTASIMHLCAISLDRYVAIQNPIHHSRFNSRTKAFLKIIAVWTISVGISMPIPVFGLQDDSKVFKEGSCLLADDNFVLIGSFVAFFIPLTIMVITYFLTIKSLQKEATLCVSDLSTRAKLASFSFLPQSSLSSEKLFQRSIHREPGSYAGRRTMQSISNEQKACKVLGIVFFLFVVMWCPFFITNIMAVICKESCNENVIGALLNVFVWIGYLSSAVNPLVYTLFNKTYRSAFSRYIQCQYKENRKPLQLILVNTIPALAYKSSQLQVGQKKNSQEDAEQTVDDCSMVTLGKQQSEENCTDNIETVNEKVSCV
Experimental: 5-HT2 Functional Assay: [Ca^2+]i Mobilization
The receptor-mediated mobilization on intracellular calcium ([Ca^2+]i) was studied using the Fluorescence Imaging Plate Reader (FLIPR) instrument. Rat vascular smooth muscle cells, A7r5, were grown in a normal media of […] and 10 μg/mL gentamycin. Confluent cell monolayers were trypsinized, pelleted, and re-suspended in normal media. Cells were seeded in a 50 μL volume at a density of 20,000 cells/well in a black wall, 96-well tissue culture plate and grown for 2 days.
On the day of the experiment, one vial of FLIPR Calcium Assay Kit dye was re-suspended in 50 mL of a FLIPR buffer consisting of Hank's Balanced Salt Solution (HBSS), 20 mM HEPES, and 2.5 mM probenecid, pH 7.4. Cells were loaded with the calcium-sensitive dye by addition of an equal volume ([…]) to each well of the 96-well plate and incubated with dye for 1 h at 23° C.
Compounds were diluted 1:50 in […]. For “hit” screening, compounds were further diluted 1:10 in FLIPR buffer and tested at a final concentration of 10 μM.
The compound plate and cell plate were placed in the FLIPR instrument. At the beginning of an experimental run, a signal test was performed to check the basal fluorescence signal from the dye-loaded cells and the uniformity of the signal across the plate. The basal fluorescence was adjusted between 8000-12000 counts by modifying the exposure time, the camera F-stop, or the laser power. Instrument settings for a typical assay were the following: laser power 0.3-0.6 W, camera F-stop F/2, and exposure time 0.4 sec. An aliquot (25 μL) of the test compound was added to the existing 100 μL dye-loaded cells at a dispensing speed of 50 μL/sec. Fluorescence data were collected in real-time at 1.0 sec intervals for the first 60 secs and at 6.0 sec intervals for an additional 120 secs.

[2] = system: intraocular pressure (IOP); experiment: Acute IOP response in lasered (hypertensive) eyes of conscious cynomolgus monkeys; assay type: in vivo; conditions: lasered monkey eye
Experimental: Acute IOP Response in Lasered (Hypertensive) Eyes of Conscious Cynomolgus Monkeys
Intraocular pressure (IOP) can be determined with an Alcon Pneumatonometer after light corneal anesthesia with 0.1% proparacaine. Eyes are washed with saline after each measurement. After a baseline IOP measurement, test compound is instilled in one 30 μL aliquot to the right eyes only of nine cynomolgus monkeys. Vehicle is instilled in the right eyes of six additional animals. Subsequent IOP measurements are taken at 1, 3, and 6 hours.

[3] = target: brain 5-HT2 receptors (Rattus norvegicus, UniProt P14842); experiment: 5-HT2 receptor binding assay ([125I]DOI competition); conditions: [125I]DOI displacement, rat or human cerebral cortex homogenates
Sequence of brain 5-HT2 receptors (P14842 whole entry): as above
Experimental: 5-HT2 Receptor Binding Assay
The assay mixture is incubated for 1 hour at 23° C. in polypropylene tubes and the assays terminated by rapid vacuum filtration over Whatman GF/B glass fiber filters previously soaked in 0.3% polyethyleneimine using ice-cold buffer. Test compounds (at different concentrations) are substituted for methiothepin. Filter-bound radioactivity is determined by scintillation spectrometry on a beta counter. The data are analyzed using a non-linear, iterative curve-fitting computer program [Trends Pharmacol. Sci., 16, 413 (1995)] to determine the compound affinity parameter. The concentration of the compound needed to inhibit the [^125I]DOI binding by 50% of the maximum is termed the IC50 or Ki value.

[4] = EC50, nM (5-HT2 functional, [Ca2+]i mobilization)
[5] = 1 hour after single topical ocular instillation of 300 μg
[6] = 3 hours after single topical ocular instillation of 300 μg
[7] = 6 hours after single topical ocular instillation of 300 μg

`COc1cc(CC(C)N)c(OC)c2c1CCOC2` (racemic) [Compound A, 2-(5,8-Dimethoxy-isochroman-7-yl)-1-methyl-ethylamine hydrochloride] gave an Emax ([1]; A7r5 cells) of 55% and an EC50 [1, 4] of 267 nM.

In the case of `COc1cc(CC(C)N)c(OC)c2c1CCOC2.Cl` (single isomer, unassigned; (+)) [Compound C, (+) 2-(5,8-Dimethoxy-isochroman-7-yl)-1-methyl-ethylamine hydrochloride], the “Efficacy (Emax, %)” value ([1]; A7r5 cells, hydrochloride) is reported as 69% and the EC50 [1, 4] is reported as 43 nM.

With `COc1cc(CC(C)N)c(OC)c2c1CCOC2.Cl` (single isomer, unassigned; (-)) [Compound B, (−) 2-(5,8-Dimethoxy-isochroman-7-yl)-1-methyl-ethylamine hydrochloride] the Emax ([1]; A7R5, A7r5 cells) was 55%, the EC50 [1, 4] was 39 nM and the “IOP lowering (%)” value [2, 5] was 15.8%. The “IOP lowering (mmHg)” value [2, 5] was 6.8 mmHg, the “IOP lowering (%)” value [2, 6] was 28.5% and the “IOP lowering (mmHg)” value [2, 6] was 12.5 mmHg. The “IOP lowering (%)” value [2, 7] was 21.3% and the “IOP lowering (mmHg)” value [2, 7] was 9.6 mmHg.

In the case of `COc1cc(CC(C)N)c(OC)cc1I` (stereo not drawn) [DOI, reference compound], the IC50 [3] is reported as 0.33 nM, the “Efficacy (Emax, %)” value ([1]; A7r5 cells) is reported as 31% and the EC50 ([1]; read-out: EC50, nM (5-HT2 functional, [Ca2+]i mobilization)) is reported as 30.2 nM.
